# Reference: patent US20130324556A1, “Protease Activated Receptor 2 (PAR2) Antagonists” (priority 2011, published 2013)
# Where a name gives a salt, the structure may show the parent alone.
# Target: T1, human PAR2 receptor (Homo sapiens, UniProt P55085)
# T1 construct: expressed in transfected cells; host or cells: 1321N1 cells
# T1 sequence (P55085 26-397): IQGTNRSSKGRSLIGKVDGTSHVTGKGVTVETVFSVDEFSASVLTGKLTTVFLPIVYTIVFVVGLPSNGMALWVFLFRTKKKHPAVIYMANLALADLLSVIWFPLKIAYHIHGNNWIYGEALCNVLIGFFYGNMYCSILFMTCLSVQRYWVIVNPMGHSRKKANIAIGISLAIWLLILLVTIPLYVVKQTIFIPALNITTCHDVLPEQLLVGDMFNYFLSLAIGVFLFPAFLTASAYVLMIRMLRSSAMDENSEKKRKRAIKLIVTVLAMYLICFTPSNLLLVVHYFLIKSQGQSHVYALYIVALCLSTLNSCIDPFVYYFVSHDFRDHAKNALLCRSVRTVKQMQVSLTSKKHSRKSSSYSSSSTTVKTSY
# Assay: PAR2 antagonist activity, calcium flux FLIPR assay (trypsin challenge)
# Type: cell-based
# Details: 1321N1 cells transfected with the human PAR2 receptor; trypsin (EC50 concentration) challenge; calcium flux FLIPR; read-out: PAR2 IC50
# Description: The PAR2 receptor couples through the Gq signaling pathway and results in activation of calcium mobilization. The functional activity of test compounds was routinely tested by measuring the ability of compounds to antagonize PAR2 (trypsin challenge) activity in a dose dependent manner, in 1321N1 cells transfected with the human PAR2 receptor, using a calcium flux Fluorescent Imaging Plate Reader FLIPR assay.
# Briefly, test compounds were dissolved in DMSO to a concentration of 20 mM and stored in matrix screenmate racks. […] The compounds were then transferred to 384-well assay plates ready for use. […] The assay buffer used was HBSS buffer supplemented with 20 mM HEPES and 0.1% BSA (protease free), pH7.4. The loading/wash buffers were the same as the assay buffer.
# Sub-cultivations were performed every 2-3 d. […] After washing, the cells were loaded with Fluo-4 AM dye (Molecular probes) at 2 μM containing 0.48 μg/mL pluronic acid for 60 min at 37° C. under 5% CO2.
# A combined agonist/antagonist protocol was used to measure changes in intracellular calcium concentration. Compound (antagonist) was added to the cell plate using a Fluorometric Imaging Plate Reader (FLIPR) (Molecular Devices, Sunnyvale, Calif., USA). Basal fluorescence was recorded every second for 10 seconds prior to compound addition (10 μl) and fluorescence recorded every second for 1 min then every 6 seconds for a further 1 min. Trypsin (EC50 concentration) was then added using the FLIPR and fluorescence recorded as described above. Curve-fitting and parameter estimation were carried out using GraphPad Prism 4.0 (GraphPad Software Inc., San Diego, Calif.).
row,IC50 [µM],Structure (SMILES)
1,5 to 20,"NCc1ccc(CNC(=O)N2CCC(Cc3ccccc3)CC2)cc1 [Example 1, (4-{[(4-Benzylpiperidin-1-yl)carbonylamino]methyl}phenyl)methanaminium chloride]"
2,20 to 50,"COc1cccc(CC2CCN(C(=O)NCc3ccc(CN)cc3)CC2)c1 [Example 2, 2,2,2-Trifluoroacetic acid; N-{[4-(aminomethyl)phenyl]methyl}-4-[(3-methoxyphenyl)methyl] piperidine-1-carboxamide]"
3,< 5,"COc1ccc(CC2CCN(C(=O)NCc3ccc(CN)cc3)CC2)cc1 [Example 3, 2,2,2-Trifluoroacetic acid; N-{[4-(aminomethyl)phenyl]methyl}-4-[(4-methoxyphenyl)methyl] piperidine-1-carboxamide]"
4,< 5,"NCc1ccc(CNC(=O)N2CCC(Cc3cccc(F)c3)CC2)cc1 [Example 4, 2,2,2-Trifluoroacetic acid; N-{[4-(aminomethyl)phenyl]methyl}-4-[(3-fluorophenyl)methyl] piperidine-1-carboxamide]"
5,< 5,"NCc1ccc(CNC(=O)N2CCC(Cc3ccc(F)cc3)CC2)cc1 [Example 5, N-{[4-(Aminomethyl)phen-yl]methyl}-4-[(4-fluorophenyl)methyl]piper-idine-1-carboxamide hydrochloride]"
6,< 5,"NCc1ccc(CNC(=O)N2CCC(Cc3ccc(Cl)cc3)CC2)cc1 [Example 6, 2,2,2-Trifluoroacetic acid; N-{[4-(aminomethyl)phenyl]methyl}-4-[(4-chlorophenyl)methyl] piperidine-1-carboxamide]"
7,5 to 20,"Cc1ccc(CC2CCN(C(=O)NCc3ccc(CN)cc3)CC2)cc1 [Example 7, 2,2,2-Trifluoroacetic acid; N-{[4-(aminomethyl)phenyl]methyl}-4-[(4-methylphenyl)methyl] piperidine-1-carboxamide]"
8,5 to 20,"NCc1ccc(CNC(=O)N2CCC(Cc3ccccn3)CC2)cc1 [Example 8, N-{[4-(Aminomethyl)phen-yl]methyl}-4-(pyridin-2-ylmethyl)piperidine-1-carboxamide]"
9,20 to 50,"NCc1ccc(CNC(=O)N2CCC(Cc3cccnc3)CC2)cc1 [Example 9, N-{[4-(Aminomethyl)phen-yl]methyl}-4-(pyridin-3-ylmethyl)piperidine-1-carboxamide]"
10,5 to 20,"NCc1ccc(CNC(=O)N2CCC(Cc3ccncc3)CC2)cc1 [Example 10, N-{[4-(Aminomethyl)phen-yl]methyl}-4-(pyridin-4-ylmethyl)piperidine-1-carboxamide]"
11,20 to 50,"NCc1ccc(CNC(=O)N2CCC(Oc3ccccc3)CC2)cc1 [Example 11, N-{[4-(Aminomethyl)phen-yl]methyl}-4-phenoxypiperidine-1-carboxamide]"
12,5 to 20,"NCc1ccc(CNC(=O)N2CCC(Oc3ccc(F)cc3)CC2)cc1 [Example 12, N-{[4-(Aminomethyl)phen-yl]methyl}-4-(4-fluorophenoxy)piperidine-1-carboxamide]"
13,20 to 50,"NCc1ccc(CNC(=O)N2CCC(Oc3ccccc3Cl)CC2)cc1 [Example 13, N-{[4-(Aminomethyl)phen-yl]methyl}-4-(2-chlorophenoxy)piperidine-1-carboxamide hydrochloride]"
14,20 to 50,"NCc1ccc(CNC(=O)N2CCC(Oc3cccc(Cl)c3)CC2)cc1 [Example 14, N-{[4-(Aminomethyl)phen-yl]methyl}-4-(3-chlorophenoxy)piperidine-1-carboxamide hydrochloride]"
15,20 to 50,"NCc1ccc(CNC(=O)N2CCC(Oc3ccc(Cl)cc3)CC2)cc1 [Example 15, N-{[4-(Aminomethyl)phen-yl]methyl}-4-(4-chlorophenoxy)piperidine-1-carboxamide hydrochloride]"
16,5 to 20,"NCc1ccc(CNC(=O)N2CCC(Sc3ccccc3)CC2)cc1 [Example 16, N-{[4-(Aminomethyl)phen-yl]methyl}-4-(phenylsulfanyl)piperidine-1-carboxamide hydrochloride]"
